Measurements published in US12351587B2, “Bicyclic compound as RIP-1 kinase inhibitor and application thereof” (MEDSHINE DISCOVERY INC., priority 2019, dated 2025).

Columns and labels:
U937 cells = test: U937 cell activity assay: TNFα/QVD-OPh-induced programmed cell necrosis (necroptosis); format: cell-based, human; details: QVD-OPh 25 μM + TNF-α 100 ng/mL, CellTiter Glo
Experimental: 1.2 Instrument and Materials
Envision plate reader (Perkin Elmer, Cat #2104-0010)
1.3 Formulation of Reagents • (1) 1×DPSB: To 100 mL of 10×DPBS was added 900 mL of deionized water. • (2) 1640 complete medium: To 89 mL of RPMI-1640 medium were added 10 mL of FBS and 1 mL of penicillin/streptomycin 2. Assay Steps • 1. U937 cells were centrifuged, and then the medium was discarded. The cells were resuspended in 1640 complete medium and counted. The cell concentration was adjusted to 5×10^5 cells/mL for use, and the cells were arranged according to compounds to be assayed. • 2. To the prepared resuspension of U937 cells were added QVD-OPh at a final concentration of 25 μM and TNF-α at a final concentration of 100 ng/mL, and then the mixture was mixed gently. • 3. To a 384-well plate was added 30 μL/well of U937 cells containing 25 μM of QVD-OPh and TNF-α at a final concentration of 100 ng/mL, and blank control wells without QVD-OPh and TNF-α were set up. • 4. To the dosing group […] added 10 μL of the assay compound at 4 times the preset concentration, and to the blank control well was added DMSO at the corresponding concentration. • 5. The 384-well plate was placed in a 37° C. and 5% CO2 cell incubator for 24 hours. • 6. After 24 hours, the 384-well plate was taken out and equilibrated at room temperature for 20 minutes. • 7. 40 μL of CTG was added to each well, and then the plate was shaken on a shaker in the dark for 2 minutes. • 8. The plate was incubated at room temperature in the dark for 10 minutes, and then read using an Envision plate reader.

L929 cells = test: In vitro activity assay of mouse RIP1: L929 cell TNFα/QVD-OPh-induced necroptosis; format: cell-based; details: TNF-α 50 ng/mL + Q-VD 50 μM, 24 h, CellTiter Glo
Experimental: Assay Example 2: In Vitro Activity Assay of Mouse RIP1
L929 (purchased from ATCC, Item No.: CCL-1)
Instrument Microplate reader (Perkin Elmer, Envision) Formulation of Reagents L929 cell complete medium: EMEM+10% horse serum (volume ratio)+1% double antibiotics (volume ratio) Assay Step • 1. The cultured L929 cells were digested with trypsin, centrifuged, resuspended in complete culture medium, and then counted. The cell concentration was then diluted to 1×10^5/mL with complete culture medium. • 2. The cell suspension was added to a 96-well plate at 100 μL per well and incubated at 37° C. and 5% CO2 for 24 h. • 3. Different concentrations of assay compounds were added to each well, and dimethyl sulfoxide was added to the control group. The plate was incubated at 37° C. and 5% CO2 for 1 h. • 4. To each well were added TNF-α at a final concentration of 50 ng/mL and Q-VD at a final concentration of 50 μM, and the plate was incubated at 37° C. and 5% CO2 for 24 h. • 5. To each well was added 50 μL of CellTiter Glo […], and the plate was shaken in the dark for 10 min. • 6. The plate was read on the microplate reader.

[1] = Pharmacokinetic parameters in dogs; format: in vivo; details: beagle, plasma, dog
Experimental: Four healthy adult beagle dogs were selected and randomly divided into two groups. One group was given the assay compound by intravenous injection, and the other group was given the assay compound by gavage. Plasma samples were collected respectively from animals in the intravenous group and gavage group at 0.083, 0.25, 0.5, 1.0, 2.0, 4.0, 6.0, 8.0, 24 hours after administration. The blood concentration was determined by LC-MS/MS method. Relevant pharmacokinetic parameters were calculated by WinNonlin™ Version 6.3 (Pharsight. Mountain View, CA) pharmacokinetic software using non-compartmental model and linear logarithmic trapezoidal method. AUC0-last represents the area under the plasma concentration-time curve from zero time point to the last detectable concentration time point; Cmax represents the peak concentration; Tmax represents the time to reach the peak; T1/2 represents the half-life; CL represents the clearance rate; Vdss represents apparent volume of distribution; p.o. represents per os; i.v. represents intravenous injection; and F % represents oral bioavailability.

SMILES | IC50 (U937 cells; Homo sapiens, U-937, 24 h) | IC50 (L929 cells) | further results
CN1C(=S)[C@@H](NC(=O)c2nc3n(n2)CCO[C@H]3c2ccccc2)COc2cccnc21 (single isomer, unassigned) [WX028] | 4.7 nM | 0.065 µM | 
CN1C(=S)[C@@H](NC(=O)c2nc(Cc3ccccc3)n[nH]2)COc2ccccc21 [WX001] | 0.5 nM | 1.16 µM | 
CN1C(=S)[C@@H](NC(=O)c2nc(Cc3cccc(C#N)c3)n[nH]2)COc2ccccc21 [WX002] | 1.8 nM |  | 
CN1C(=S)[C@@H](NC(=O)c2nc(Cc3ccccc3)n[nH]2)COc2cccnc21 [WX003] | 0.5 nM | 1.21 µM | 
CN1C(=S)[C@@H](NC(=O)c2nc(Cc3cccc(C#N)c3)n[nH]2)COc2cccnc21 [WX004] | 0.3 nM |  | 
[2H]C([2H])([2H])N1C(=S)[C@@H](NC(=O)c2n[nH]c(Cc3ccccc3)n2)COc2cccnc21 [WX005] | 2 nM | 1.31 µM | 
CN1C(=S)[C@@H](NC(=O)c2cn(Cc3ccccc3)cn2)COc2cccnc21 [WX006] | 9 nM |  | 
CN1C(=S)[C@@H](NC(=O)c2cc(Cc3ccccc3)on2)COc2cccnc21 [WX007] | 70 nM |  | 
CN1C(=S)[C@@H](NC(=O)c2nc(Cl)n(Cc3cccc(C#N)c3)n2)COc2cccnc21 [WX008] | 8.1 nM | 0.047 µM | 
CN1C(=S)[C@@H](NC(=O)c2cn(Cc3ccccc3)nn2)COc2cccnc21 [WX010] | 47 nM |  | 
CN1C(=S)[C@@H](NC(=O)c2nc(Cl)n(Cc3ccccc3)n2)COc2cccnc21 [WX011] | 1.7 nM | 0.011 µM | 
CN1C(=S)[C@@H](NC(=O)c2nnc(Cc3ccccc3)o2)COc2cccnc21 [WX012] | 12.1 nM |  | 
CN1C(=S)[C@@H](NC(=O)c2nc3n(n2)[C@H](c2ccccc2)CC3)COc2cccnc21 [WX013] | 1.8 nM | 0.014 µM | AUC(0-t) ([1]; 1 mg/kg, iv = 1 mpk): 7.42 µM·h; clearance ([1]; 1 mg/kg, iv = 1 mpk): 5.18 mL/min/kg; half-life ([1]; 1 mg/kg, iv = 1 mpk): 4.89 h; Vd ([1]; 1 mg/kg, iv = 1 mpk, read-out: Vdss): 2.02 L/kg; AUC(0-t) ([1]; 5 mg/kg, po = 5 mpk): 27.7 µM·h; bioavailability ([1]; po = 5 mpk vs iv = 1 mpk): 80.1%
O=C(N[C@H]1CCc2cc(F)cc(F)c2NC1=S)c1nc(Cc2ccccc2)n[nH]1 [WX014] | 3.7 nM |  | 
CN1C(=S)[C@@H](NC(=O)c2nnn(Cc3ccccc3)n2)COc2cccnc21 [WX015] |  |  | IC50 (U937 cells; 24 hours): 5.1 nM
Cc1nc(C(=O)N[C@H]2COc3cccnc3N(C)C2=S)nn1Cc1ccccc1 [WX016] | 9.8 nM |  | 
CN1C(=S)[C@@H](NC(=O)c2ncn(CC34CC(F)(C3)C4)n2)COc2cccnc21 [WX017] | 59 nM |  | 
CN1C(=S)[C@@H](NC(=O)c2nnn(Cc3ccccc3)n2)COc2cccnc21 [WX018] |  |  | IC50 (U937 cells; 24 hours): 1.3 nM
CN1C(=S)[C@@H](NC(=O)c2ncn(Cc3ccccc3F)n2)COc2cccnc21 [WX019] | 0.6 nM | 0.051 µM | 
CN1C(=S)[C@@H](NC(=O)c2ncn(Cc3c(F)cccc3F)n2)COc2cccnc21 [WX020] | 0.6 nM | 0.029 µM | 
CN1C(=S)[C@@H](NC(=O)c2ncn(Cc3ccccc3)n2)COc2cc(Cl)cnc21 [WX021] | 13 nM | 0.445 µM | 

SMILES | IC50 (U937 cells; Homo sapiens, U-937, 24 h) | IC50 (L929 cells) | further results
CN1C(=S)[C@@H](NC(=O)c2ncn(Cc3ccccc3F)n2)COc2cc(Cl)cnc21 [WX022] | 20 nM |  | 
CN1C(=S)[C@@H](NC(=O)c2ncn(Cc3ccccc3)n2)COc2cc(Br)cnc21 [WX023] | 29 nM |  | 
CN1C(=S)[C@@H](NC(=O)c2ncn(Cc3ccccc3)n2)COc2ccc(C(=O)O)cc21 [WX024] | 43 nM |  | 
CN1C(=S)[C@@H](NC(=O)c2ncn(Cc3ccccc3)n2)COc2ccncc21 [WX025] | 12 nM |  | 
CN1C(=S)[C@@H](NC(=O)c2cc(Oc3ccccc3)ccn2)COc2cccnc21 [WX026] | 5 nM |  | 
COc1ccccc1Cn1cnc(C(=O)N[C@H]2COc3cccnc3N(C)C2=S)n1 [WX027] | 20 nM |  | 
CN1C(=S)[C@@H](NC(=O)c2ncn(Cc3cccc(F)c3)n2)COc2cccnc21 [WX029] | 2.2 nM | 0.184 µM | 
COc1ccc(Cn2cnc(C(=O)N[C@H]3COc4cccnc4N(C)C3=S)n2)cc1 [WX030] | 15.6 nM |  | 
CN1C(=S)[C@@H](NC(=O)c2ncn(Cc3ccc(F)cc3)n2)COc2cccnc21 [WX031] | 2.4 nM | 0.174 µM | 
CN1C(=S)[C@@H](NC(=O)c2ncn(Cc3cccc(C#N)c3)n2)COc2cccnc21 [WX032] | 5.7 nM | 0.255 µM | 
Cc1cccc(Cn2cnc(C(=O)N[C@H]3COc4cccnc4N(C)C3=S)n2)c1 [WX033] | 7.6 nM |  | 
CN1C(=S)[C@@H](NC(=O)c2ncn(Cc3cc(F)cc(F)c3)n2)COc2cccnc21 [WX034] | 3.7 nM |  | 
Cc1ccccc1Cn1cnc(C(=O)N[C@H]2COc3cccnc3N(C)C2=S)n1 [WX035] | 4.9 nM |  | 
CN1C(=S)[C@@H](NC(=O)c2ncn(Cc3cccc(Cl)c3)n2)COc2cccnc21 [WX036] | 6.4 nM |  | 
CN1C(=S)[C@@H](NC(=O)c2ncn(Cc3cccc(Br)c3)n2)COc2cccnc21 [WX037] | 24 nM |  | 
CN1C(=S)[C@@H](NC(=O)c2ncn(Cc3ccc(OC(F)(F)F)cc3)n2)COc2cccnc21 [WX038] | 238 nM |  | 
Cc1ccc(Cn2cnc(C(=O)N[C@H]3COc4cccnc4N(C)C3=S)n2)cc1 [WX039] | 3.4 nM | 0.064 µM | 
CN1C(=S)[C@@H](NC(=O)c2ncn(Cc3ccccc3)n2)COc2ccc(C(N)=O)cc21 [WX040] | 4.8 nM |  | 
CN1C(=S)[C@@H](NC(=O)c2ncn(Cc3ccc(C(F)(F)F)cc3)n2)COc2cccnc21 [WX041] | 86.5 nM |  | 
COc1cccc(Cn2cnc(C(=O)N[C@H]3COc4cccnc4N(C)C3=S)n2)c1 [WX042] | 24.8 nM |  | 
